Where two headings read alike, the source gives them in different places.
How the values were obtained:
recombinant human GALK1 = recombinant human GALK1 (Homo sapiens, UniProt P51570); assay: hGALK1 biochemical activity assay (Kinase-Glo Plus, ATP depletion)
Summary of the method: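 Turnover is measured as ATP depletion by Kinase-Glo Plus luminescence after a 1 h room-temperature reaction. Compounds span 11 concentrations, 57.4 μM–0.97 nM, in final 20 mM HEPES pH 8.0 with 5 mM MgCl2. The substrate solution held 35 μM ATP; the added solution held 5 nM human or mouse GALK1 and 100 μM galactose.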

recombinant mouse GALK1 = recombinant mouse GALK1 (Mus musculus, UniProt Q9R0N0); assay: mGALK1 biochemical activity assay (Kinase-Glo Plus, ATP depletion)
recombinant mouse GALK1, sequence (Q9R0N0 whole entry): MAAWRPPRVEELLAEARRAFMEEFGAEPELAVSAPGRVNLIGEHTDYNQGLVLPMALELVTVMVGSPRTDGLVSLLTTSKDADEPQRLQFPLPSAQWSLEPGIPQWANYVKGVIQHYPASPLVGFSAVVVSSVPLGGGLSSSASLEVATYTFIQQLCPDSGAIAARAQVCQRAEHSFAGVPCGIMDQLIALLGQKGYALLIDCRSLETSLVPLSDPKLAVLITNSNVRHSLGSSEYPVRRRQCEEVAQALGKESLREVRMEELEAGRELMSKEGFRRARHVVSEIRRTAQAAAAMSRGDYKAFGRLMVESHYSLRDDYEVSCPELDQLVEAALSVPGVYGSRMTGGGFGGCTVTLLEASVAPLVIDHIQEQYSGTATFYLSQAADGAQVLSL
Summary of the method: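 Recombinant GALK1 (5 nM) with 100 μM galactose; GALK1 turnover read as ATP depletion by Kinase-Glo Plus luminescence. Reaction ran 1 h at room temperature before detection reagent was added.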

[1] = aqueous kinetic solubility
[2] = rat microsomal stability (RLM); settings: microsomal half-life
[3] = Tables 2-15, 35 μM ATP, 100 μM galactose, 1 h, bracketed figure after some values (e.g. −1.2) is undefined and not reported, read-out: hGALK IC50
[4] = recombinant human GALK1, Kinase-Glo Plus ATP depletion, read-out: hGALK
[5] = Tables 2-15, 35 μM ATP, 100 μM galactose, 1 h, bracketed figure after some values is undefined and not reported, read-out: mGALK IC50
[6] = recombinant mouse GALK1, Kinase-Glo Plus ATP depletion, read-out: mGALK
[7] = Tables 2-15, 35 μM ATP, 100 μM galactose, 1 h, bracketed figure after some values is undefined and not reported
[8] = recombinant mouse GALK1, Kinase-Glo Plus ATP depletion

recombinant human GALK1, sequence (P51570 whole entry): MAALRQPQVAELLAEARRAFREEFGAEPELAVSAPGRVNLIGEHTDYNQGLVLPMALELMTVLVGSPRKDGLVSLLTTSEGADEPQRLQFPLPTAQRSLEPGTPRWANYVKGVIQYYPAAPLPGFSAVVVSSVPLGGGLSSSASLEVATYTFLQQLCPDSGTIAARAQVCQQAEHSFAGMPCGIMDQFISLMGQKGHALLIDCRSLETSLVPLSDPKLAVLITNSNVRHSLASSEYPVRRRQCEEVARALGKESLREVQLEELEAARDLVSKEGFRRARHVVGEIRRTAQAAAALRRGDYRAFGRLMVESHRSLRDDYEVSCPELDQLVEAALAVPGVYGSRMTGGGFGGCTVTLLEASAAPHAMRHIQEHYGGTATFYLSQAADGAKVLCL

SMILES	IC50 (recombinant human GALK1; [3])	IC50 (recombinant human GALK1; [4])	IC50 (recombinant mouse GALK1; [5])	IC50 (recombinant mouse GALK1; [6])	Perm. (1 × 10^−6 cm/sec) (PAMPA permeability)	Sol. [1]	Metab. Stabil. (m) [2]	mGALK IC50 (recombinant mouse GALK1; [7])	mGALK (μM) (recombinant mouse GALK1; [8])
CC1=C(C(=O)Nc2cc(C(=O)O)ccn2)C(c2ccc(C)cc2Cl)N=C(Nc2nc3cnccc3o2)N1 (stereo not shown) [Compound 106, 2-(4-(2-chloro-4-methylphenyl)-6-methyl-2-(oxazolo[4,5-c]pyridin-2-ylamino)-1,4-dihydropyrimidine-5-carboxamido)isonicotinic acid]	0.86 µM	0.86 µM	6.85 µM	6.85 µM	<1 1 × 10^−6 cm/sec	>51 µg/mL	>30 m	–	–
CC1=C(C(=O)NCc2cnn(C)c2)C(c2ccc(C)cc2Cl)N=C(Nc2nc3cccnc3o2)N1 (stereo not shown) [Compound 107, 4-(2-chloro-4-methylphenyl)-6-methyl-N-((1-methyl-1H-pyrazol-4-yl)methyl)-2-(oxazolo[5,4-b]pyridin-2-ylamino)-1,4-dihydropyrimidine-5-carboxamide]	17.2 µM	17.2 µM	–	–	355.44 1 × 10^−6 cm/sec	4.8 µg/mL	3.664 m	inactive	in- active
CC1=C(C(=O)Nc2cc(C(=O)O)ccn2)C(c2ccc(C)cc2Cl)N=C(Nc2nc3cccnc3o2)N1 (stereo not shown) [Compound 108, 2-(4-(2-chloro-4-methylphenyl)-6-methyl-2-(oxazolo[5,4-b]pyridin-2-ylamino)-1,4-dihydropyrimidine-5-carboxamido)isonicotinic acid]	12.2 µM	12.2 µM	–	–	<1 1 × 10^−6 cm/sec	>51 µg/mL	>30 m	inactive	in- active
CC1=C(C(=O)Nc2cc(C(=O)O)ccn2)C(c2ccc(C)cc2Cl)N=C(Nc2nc3c(o2)CCCC3)N1 (stereo not shown) [Compound 109, 2-(4-(2-chloro-4-methylphenyl)-6-methyl-2-((4,5,6,7-tetrahydrobenzo[d]oxazol-2-yl)amino)-1,4-dihydropyrimidine-5-carboxamido)isonicotinic acid]	3.06 µM	3.06 µM	4.32 µM	4.32 µM	<1.8 1 × 10^−6 cm/sec	>52 µg/mL	>30 m	–	–
CC1=C(C(=O)NCc2cnn(Cc3ccccc3)c2)C(c2ccc(C)cc2Cl)N=C(Nc2nc3ccc(F)cc3o2)N1 (stereo not shown) [Compound 110, N-((1-benzyl-1H-pyrazol-4-yl)methyl)-4-(2-chloro-4-methylphenyl)-2-((6-fluorobenzo[d]oxazol-2-yl)amino)-6-methyl-1,4-dihydropyrimidine-5-carboxamide]	1.72 µM	1.72 µM	5.44 µM	5.44 µM	159.0 1 × 10^−6 cm/sec	<1 µg/mL	2.74 m	–	–
CC1=C(C(=O)NCc2c(C)nn(C)c2C)C(c2ccc(C)cc2Cl)N=C(Nc2nc3ccc(F)cc3o2)N1 (stereo not shown) [Compound 111, 4-(2-chloro-4-methylphenyl)-2-((6-fluorobenzo[d]oxazol-2-yl)amino)-6-methyl-N-((1,3,5-trimethyl-1H-pyrazol-4-yl)methyl)-1,4-dihydropyrimidine-5-carboxamide]	3.85 µM	3.85 µM	4.85 µM	4.85 µM	16.91 1 × 10^−6 cm/sec	<1 µg/mL	2.66 m	–	–
CCn1cc(CNC(=O)C2=C(C)NC(Nc3nc4ccc(F)cc4o3)=NC2c2ccc(C)cc2Cl)cn1 (stereo not shown) [Compound 112, 4-(2-chloro-4-methylphenyl)-N-((1-ethyl-1H-pyrazol-4-yl)methyl)-2-((6-fluorobenzo[d]oxazol-2-yl)amino)-6-methyl-1,4-dihydropyrimidine-5-carboxamide]	1.22 µM	1.22 µM	6.85 µM	6.85 µM	<21.9 1 × 10^−6 cm/sec	<1 µg/mL	9.22 m	–	–
